Experimental data taken from patent US20150329558A1, “FUSED HETEROCYCLIC COMPOUNDS AS ION CHANNEL MODULATORS” (Gilead Sciences, Inc., priority 2011, published 2015).
Read-outs that look alike come from different tables or passages of the source.

How the values were obtained:
[1] = Microsomal stability assay, human; assay type: in vitro ADME; conditions: metabolic stability, human liver microsomes 0.5 mg/mL, substrate 3 uM
Summary of the method: (§1)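 Liver microsomes at 0.5 mg/mL protein in 100 mM KPO4 buffer, incubated with 3 uM compound and NADPH-regenerating system, run in duplicate. Samples taken at 2, 12, 25, 45 and 65 min and quenched in MeOH/ACN/water before analysis.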

[2] = target: wild-type human cardiac sodium channel, hNav1.5 (late INa) (Homo sapiens, UniProt Q14524); test: Late INa screening assay (QPatch whole cell patch clamp); assay type: cell-based
Sequence of wild-type human cardiac sodium channel, hNav1.5 (late INa) (Q14524 whole entry): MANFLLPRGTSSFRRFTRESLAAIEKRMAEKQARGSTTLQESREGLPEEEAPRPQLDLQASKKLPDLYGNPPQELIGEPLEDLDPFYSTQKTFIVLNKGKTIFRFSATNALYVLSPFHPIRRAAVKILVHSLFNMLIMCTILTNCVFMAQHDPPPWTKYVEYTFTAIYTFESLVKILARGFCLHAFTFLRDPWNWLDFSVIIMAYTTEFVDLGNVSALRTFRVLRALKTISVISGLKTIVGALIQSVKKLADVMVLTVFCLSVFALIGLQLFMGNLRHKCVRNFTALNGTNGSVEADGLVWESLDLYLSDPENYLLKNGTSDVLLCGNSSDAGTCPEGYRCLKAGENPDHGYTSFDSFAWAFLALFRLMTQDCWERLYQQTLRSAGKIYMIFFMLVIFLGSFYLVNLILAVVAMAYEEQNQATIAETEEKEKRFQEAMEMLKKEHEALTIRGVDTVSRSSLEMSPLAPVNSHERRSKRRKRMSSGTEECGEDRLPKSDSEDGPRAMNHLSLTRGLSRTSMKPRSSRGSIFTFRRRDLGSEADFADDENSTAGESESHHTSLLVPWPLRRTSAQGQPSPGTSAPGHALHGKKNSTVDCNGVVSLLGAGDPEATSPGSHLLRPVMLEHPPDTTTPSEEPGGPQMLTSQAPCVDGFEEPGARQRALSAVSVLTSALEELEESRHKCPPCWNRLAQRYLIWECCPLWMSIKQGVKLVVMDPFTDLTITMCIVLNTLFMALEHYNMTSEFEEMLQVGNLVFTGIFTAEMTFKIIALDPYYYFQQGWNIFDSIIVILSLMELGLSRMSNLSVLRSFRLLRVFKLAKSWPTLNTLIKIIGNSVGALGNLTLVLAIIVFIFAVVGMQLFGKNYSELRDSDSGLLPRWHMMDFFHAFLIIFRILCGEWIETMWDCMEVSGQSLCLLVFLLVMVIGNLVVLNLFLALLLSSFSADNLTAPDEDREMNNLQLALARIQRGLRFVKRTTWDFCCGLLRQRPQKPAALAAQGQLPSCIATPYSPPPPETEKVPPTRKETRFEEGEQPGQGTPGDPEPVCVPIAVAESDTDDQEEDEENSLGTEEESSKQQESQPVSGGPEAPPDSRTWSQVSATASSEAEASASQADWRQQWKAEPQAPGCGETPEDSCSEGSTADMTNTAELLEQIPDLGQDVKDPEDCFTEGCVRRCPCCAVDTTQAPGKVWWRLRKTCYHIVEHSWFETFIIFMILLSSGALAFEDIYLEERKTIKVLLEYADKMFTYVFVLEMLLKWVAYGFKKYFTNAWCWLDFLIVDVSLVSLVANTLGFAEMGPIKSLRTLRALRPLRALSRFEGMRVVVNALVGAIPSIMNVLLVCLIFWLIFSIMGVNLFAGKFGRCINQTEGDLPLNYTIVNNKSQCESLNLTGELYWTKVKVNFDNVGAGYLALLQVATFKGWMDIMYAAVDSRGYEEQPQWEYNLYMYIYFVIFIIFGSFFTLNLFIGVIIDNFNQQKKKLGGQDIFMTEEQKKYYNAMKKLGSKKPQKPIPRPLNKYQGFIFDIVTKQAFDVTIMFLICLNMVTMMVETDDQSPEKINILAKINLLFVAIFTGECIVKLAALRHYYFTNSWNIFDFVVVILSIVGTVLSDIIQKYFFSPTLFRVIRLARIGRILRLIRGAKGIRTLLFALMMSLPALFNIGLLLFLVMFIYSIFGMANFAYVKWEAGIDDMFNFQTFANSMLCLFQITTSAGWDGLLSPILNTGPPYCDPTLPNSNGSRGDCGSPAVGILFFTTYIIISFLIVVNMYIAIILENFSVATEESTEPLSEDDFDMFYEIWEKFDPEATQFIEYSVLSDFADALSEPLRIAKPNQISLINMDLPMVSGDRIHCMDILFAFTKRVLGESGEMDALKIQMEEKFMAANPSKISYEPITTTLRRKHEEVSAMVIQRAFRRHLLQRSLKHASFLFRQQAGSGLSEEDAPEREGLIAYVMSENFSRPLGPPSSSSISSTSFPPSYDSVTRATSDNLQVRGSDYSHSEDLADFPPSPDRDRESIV
Summary of the method: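 Compounds tested at 1 μM final in extracellular solution against tefluthrin (10 μM)-enhanced late current. Automated patch clamp (23-25° C) on HEK293 expressing alpha subunit alone: −120 mV holding, 250 ms depolarization to −20 mV every 10 s. Read-out is percent inhibition of mean current over 225–250 ms.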

[3] = target: wild-type human cardiac sodium channel, hNav1.5 (peak INa) (Homo sapiens, UniProt Q14524); test: Peak INa screening assay (tonic and use-dependent block); assay type: cell-based
Sequence of wild-type human cardiac sodium channel, hNav1.5 (peak INa) (Q14524 whole entry): as above
Experimental: The late sodium current (Late INa) and peak sodium current (Peak INa) assays are performed on an automated electrophysiology platform, QPatch 16× (Sophion Bioscience, Copenhagen, Denmark), which uses the whole cell patch clamp technique to measure currents through the cell membrane of up to 16 cells at a time. The assay uses an HEK293 (human embryonic kidney) cell line heterologously expressing the wild-type human cardiac sodium channel, hNav1.5, purchased from Millipore (Billerica, Mass.). No beta subunits were coexpressed with the Na channel alpha subunit. Cells are maintained with standard tissue culture procedures and stable channel expression is maintained with 400 μg/mL Geneticin in the culture medium. […] Experiments are carried out at 23-25° C. For both the Late INa and Peak INa assays, series resistance compensation is set to 100% and series resistance and whole-cell compensation are performed automatically. Currents are digitized at 25 kHz and low-pass filtered at 12 kHz and 10 kHz for the late and peak INa assays, respectively. Currents through open sodium channels are automatically recorded and stored in the Sophion Bioscience Oracle database (Sophion Bioscience, Copehagen, Denmark). Analysis is performed using QPatch Assay and database software and data are compiled in Excel. Compound stocks are routinely made by the Gilead Sample Bank in plastic vials to 10 mM in dimethyl sulfoxide (DMSO). In some cases, when compounds are not soluble in DMSO, they are made in 100% ethanol. Stocks are sonicated as necessary. […] The intracellular solution used to perfuse the inside of the cells for both the Late INa and Peak INa assays contains: 120 mM CsF, 20 mM CsCl, 5 mM EGTA, 5 mM HEPES and pH adjusted to 7.4 with CsOH. Compounds are diluted in extracellular solution to 1 μM in glass vials and then transferred to glass well plates before robotic addition to the cells. […] Compounds were also evaluated for their effect in several other assays, including their effect on Peak INa. Good separation between the concentrations of test compound to reduce late and peak INa is beneficial to enable separation of the desired effect to reduce late INa-induced electrical and mechanical dysfunction from the undesired effect to reduce peak INa, which can lead to slowing or block of conduction of electrical excitation in the heart. It is contemplated that the compounds of Formula I avoid significant block of peak INa. Since the peak INa in the cells used herein can be very large, introducing artifacts in the recording, the concentration of Na^+ in the bath can be reduced to 20 mM and a nonpermeant cation added to compensate for the Na^+ that was removed to maintain the osmolarity and ionic strength of the solution (see solution details below). Analysis of peak INa generally requires correction for rundown before determining the % block of peak current by the tested compound. […] A low stimulation frequency of 0.1 Hz was used to determine the effect of the test compound when the channel spent most of the time in the resting (closed) state and provides information about Tonic Block (TB). A higher stimulation frequency (3 Hz) was used to measure block of the channel when it spent more time in the activated and inactivated states and provided a measure of Use-Dependent Block (UDB). Use-dependent block refers to the accumulation of block with increased frequency of channel activation. Block of cardiac peak INa by compounds of this invention is increased with an increase in the frequency of stimulation from 0.1 to 1-5 Hz (frequencies encountered either in the normal heart or during tachycardia). It is therefore expected that reduction of peak INa by compounds of this invention will be greater at high heart rates, such as those during tachyarrhythmias, than at normal heart rates. […]

[4] = Microsomal stability assay, rat; assay type: in vitro ADME; conditions: metabolic stability, rat liver microsomes 0.5 mg/mL, substrate 3 uM
Summary of the method: as §1

[5] = Microsomal stability assay, dog; assay type: in vitro ADME; conditions: metabolic stability, dog liver microsomes 0.5 mg/mL, substrate 3 uM
Summary of the method: as §1

[6] = percent block of late INa, compound at 1 μM, 10 μM Tefluthrin, HEK293 hNav1.5, read-out: Late INa 1 μM
[7] = tonic block of peak INa, 0.1 Hz, 1 μM, read-out: Peak TB 1 μM
[8] = use-dependent block of peak INa, 3 Hz, 1 μM, read-out: Peak UDB 1 μM
[9] = % inhibition at 1 μM, read-out: NAv1.5*-LATE-
[10] = % inhibition at 1 μM, tonic block, read-out: NAv1.5*-PEAK-TB-
[11] = % inhibition at 1 μM, use-dependent block 3 Hz, read-out: NAv1.5*-PEAK-UDB-3 HZ-

SMILES	MS Human THalf [1]	MS Rat THalf [4]	MS Dog THalf [5]	inhibition at 1 µM [2, 6]	inhibition at 1 µM [3, 7]	inhibition at 1 µM [3, 8]	inhibition at 1 µM [2, 9]	inhibition at 1 µM [3, 10]	inhibition at 1 µM [3, 11]	inhibition at 1 µM ([3]; read-out: Peak TB 1 μM)	inhibition at 1 µM ([3]; read-out: Peak UDB 1 μM)
O=C1c2cc(-c3ccc(C(F)(F)F)cc3)ccc2SCN1Cc1ncccc1F [Compound X-6, 3-((3-fluoropyridin-2-yl)methyl)-6-(4-(trifluoromethyl)phenyl)-2H-benzo[e][1,3]thiazin-4(3H)-one]	38 min	46 min	120 min	69%	35%	32%					
COc1cc(OC)nc(Cn2nnc3ccc(-c4ccc(OC(F)(F)F)cc4)cc3c2=O)n1 [II-44, 3-((4,6-dimethoxypyrimidin-2-yl)methyl)-6-(4-(trifluoromethoxy)phenyl)benzo[d][1,2,3]triazin-4(3H)-one]	167 min	97 min	283 min	47%	10%	4%					
COC(=O)C1(Cn2nnc3ccc(-c4ccc(OC(F)(F)F)cc4)cc3c2=O)CC1 [II-55, methyl 1-((4-oxo-6-(4-(trifluoromethoxy)phenyl)benzo[d][1,2,3]triazin-3 (4H)-yl)methyl)cyclopropanecarboxylate]	14 min	2 min	2 min	58%	7%	3%	58%	7%	3%		
O=c1c2cc(-c3ccc(OC(F)(F)F)cc3)ccc2nnn1CC1(CO)CC1 [II-75, 3-((1-(hydroxymethyl)cyclopropyl)methyl)-6-(4-(trifluoromethoxy)phenyl)benzo[d][1,2,3]triazin-4(3H)-one]	371 min	75 min	85 min	53%	11%	7%					
O=c1c2cc(-c3ccc(OC(F)(F)F)cc3)ccc2nnn1CC1(COc2ncccn2)CC1 [II-80, 3-((1-((pyrimidin-2-yloxy)methyl)cyclopropyl)methyl)-6-(4-(trifluoromethoxy)phenyl)benzo[d][1,2,3]triazin-4(3H)-one]	49 min	34 min	85 min	42%						8%	7%
O=c1c2cc(-c3ccc(OC(F)(F)F)cc3)ccc2nnn1Cc1cc(-c2ccccn2)on1 [II-47, 3-((5-(pyridin-2-yl)isoxazol-3-yl)methyl)-6-(4-(trifluoromethoxy)phenyl)benzo[d][1,2,3]triazin-4(3H)-one]	339 min	71 min	24 min	44%	6%	4%					
Cc1cc(Cn2nnc3ccc(-c4ccc(OC(F)(F)F)cc4)cc3c2=O)on1 [II-25, 3-((3-methylisoxazol-5-yl)methyl)-6-(4-(trifluoromethoxy)phenyl)benzo[d][1,2,3]triazin-4(3H)-one]	363 min	298 min	117 min	50%	9%	2%					
Cc1cnc(Cn2nnc3ccc(-c4ccc(OC(F)(F)F)cc4)cc3c2=O)o1 [II-96, 3-((5-methyloxazol-2-yl)methyl)-6-(4-(trifluoromethoxy)phenyl)benzo[d][1,2,3]triazin-4(3H)-one]	84 min	34 min	81 min	51%	10%	5%					

The next lines start with results.

MS Human THalf [1]	MS Rat THalf [4]	MS Dog THalf [5]	SMILES	inhibition at 1 µM [2, 6]	inhibition at 1 µM [3, 7]	inhibition at 1 µM [3, 8]	inhibition at 1 µM [2, 9]	inhibition at 1 µM [3, 10]	inhibition at 1 µM [3, 11]	inhibition at 1 µM ([3]; read-out: Peak TB 1 μM)	inhibition at 1 µM ([3]; read-out: Peak UDB 1 μM)
20 min	12 min	16 min	Cc1ccnn1CCn1ncc2ccc(-c3ccc(OC(F)(F)F)cc3)cc2c1=O [III-32, 2-(2-(5-methyl-1H-pyrazol-1-yl)ethyl)-7-(4-(trifluoromethoxy)phenyl)phthalazin-1 (2H)-one]	53%	18%	23%					
159 min	132 min	245 min	O=C(c1ncc[nH]1)N1CCc2ccc(-c3ccc(C(F)(F)F)cc3)cc2C1 [IX-57, (1H-imidazol-2-yl)(7-(4-(trifluoromethyl)phenyl)-3,4-dihydroisoquinolin-2(1H)-yl)methanone]	44%	10%	6%	44%	10%	6%		
44 min	30 min	14 min	O=c1c2cc(-c3ccc(OC(F)(F)F)cc3)ccc2cnn1CCOc1cnccn1 [III-39, 2-(2-(pyrazin-2-yloxy)ethyl)-7-(4-(trifluoromethoxy)phenyl)phthalazin-1 (2H)-one]	47%	7%	0%					
19 min	26 min	18 min	O=c1c2cc(-c3ccc(OC(F)(F)F)cc3)ccc2cnn1CCOc1nccc(C2CC2)n1 [III-29, 2-(2-(4-cyclopropylpyrimidin-2-yloxy)ethyl)-7-(4-(trifluoromethoxy)phenyl)phthalazin-1 (2H)-one]	58%	10%	9%					
33 min	48 min	138 min	O=C(Cc1ccccn1)N1CCc2ccc(-c3ccc(C(F)(F)F)cc3)cc2C1 [IX-29, 2-(pyridin-2-yl)-1-(7-(4-(trifluoromethyl)phenyl)-3,4-dihydroisoquinolin-2(1H)-yl)ethanone]	45%	10%	12%	45%	10%	12%		
> 395 min	44 min	114 min	O=c1c2cc(C#Cc3ccc(OC(F)(F)F)cc3)ccc2nnn1CCOc1ncccn1 [VII-1, 3-(2-(pyrimidin-2-yloxy)ethyl)-6-((4-(trifluoromethoxy)phenyl)ethynyl)benzo[d][1,2,3]triazin-4(3H)-one]	55%	7%	1%					
254 min	42 min	209 min	O=c1c2cc(-c3ccc(OC(F)(F)F)cc3)ccc2cnn1Cc1nccc(C2CC2)n1 [III-23, 2-((4-cyclopropylpyrimidin-2-yl)methyl)-7-(4-(trifluoromethoxy)phenyl)phthalazin-1 (2H)-one]	51%	6%	12%					
